The record followed here is article PMC3671673, “In Vitro Morphological Assessment of Apoptosis Induced by Antiproliferative Constituents from the Rhizomes of Curcuma zedoaria” (Evidence-based Complementary and Alternative Medicine : eCAM, 2013).

≈ marks a conversion by molar mass, not a printed value.

Assay [1] has as its system hormone-dependent breast cancer cell line (MCF-7). The assay is described as follows: cells. Format: cell-based. The note with it: Homo sapiens, MCF7; isolated compounds, 72 h, neutral red, mean ± SD of three replicates; read-out: IC50 (μg/mL) MCF-7. The protocol: (§1) The human cancer cells KB, Ca Ski, MCF-7, HCT-116, A549, and noncancer human cell lines (MRC-5) were purchased from the American Tissue Culture Collection (ATCC, USA). The supplemented RPMI 1640 media and eagle minimum essential medium (EMEM) were purchased from Sigma-Aldrich, USA. The supplements or antibiotics such as foetal bovine serum (FBS), penicillin/streptomycin (P/S) (100 μg/mL), amphotericin B (50 μg/mL), and accutase were purchased from PAA Laboratories, Austria. Sodium pyruvate (11 mg/mL) purchased from Sigma-Aldrich, USA. The cells were cultured in a SHEL LAB water-jacketed CO2 incubator with […] tissue culture flasks (Nunc, Denmark), which was observed routinely under inverted microscope (Leica DMI3000 B, Germany) for any contamination and seeded into 96-well flat bottom microtiter plate (Nunc, Denmark). The extract or pure compounds was dissolved in dimethyl sulfoxide (DMSO, Molecular Biology Grade, >99.9%) from Sigma-Aldrich, USA. Microtiter plate incubator shaker (LT Biomax 500) was used and absorbance was measured at 540 nm using an ELISA microplate reader (EMax microplate reader of Molecular Devices, USA). MCF-7 and Ca Ski were cultured in RPMI 1640 media supplemented with 10% v/v FBS, P/S, and amphotericin B and MRC-5 in EMEM media with 10% v/v FBS, P/S, amphotericin B, and sodium pyruvate. The cells were cultured in tissue culture flask in 5% CO2 incubator kept at 37°C in a humidified atmosphere and observed routinely under inverted microscope from any contaminations. Each fresh medium was replaced every 2 or 3 days until cell confluence was achieved and the cells were detached by using accutase.
(§2) The in vitro cytotoxicity activity was performed using the neutral red cytotoxicity assay based on the initial protocol as described earlier with some modifications. Briefly, cells were detached from the tissue culture flask with 1.0 mL solution of accutase and PBS solution. The cell pellet was obtained by centrifugation at 1,000 rpm for 5 minutes. The density of the viable cells was counted by 0.4% of trypan blue exclusion in a haemocytometer. Cells were then plated in 96-well microtiter plate (Nunc), at a concentration of 1 × 10^4 cells/well and incubated in a CO2 incubator at 37°C to allow the cells to adhere. After 24 h, the cells were treated with six different concentrations, that is, 1, 10, 25, 50, 75, and 100 μg/mL of each tested agent in three replicates. The plates were incubated for 72 h at 37°C in a 5% CO2 incubator. The untreated cells were regarded as a negative control, whilst cells incubated only with DMSO (0.5%, v/v) were used as a vehicle control. No effect due to the DMSO was observed. Doxorubicin was used as the positive control. After 72 h, the old medium was substituted with fresh medium containing 50 μg/mL neutral red. The 96-well plates were placed into incubator for 3 h. This is to allow the uptake of the vital dye into the lysosomes of viable and undamaged cells. Then, the media was discarded and cells were washed with 200 μL of neutral red washing solution. The dye was eluted from the cells by adding neutral red resorb solution (200 μL). The plate was further incubated for 30 min with rapid agitation on a microtiter plate shaker. The optical density (OD) of the eluted dye was read at 540 nm using a microplate reader. The experiments were conducted in triplicates. The percentage of inhibition of each of the test samples was calculated according to the following formula using the OD values obtained: percentage of inhibition (%) = (OD control − OD sample)/OD control × 100%. The average of three replicates was then obtained. Cytotoxicity of each test agent is expressed as IC50 value. The IC50 value is the concentration of test agents that cause 50% inhibition or cell death, averaged from the three experiments. The IC50 for each extract was extrapolated from the graphs of the percentage inhibition versus concentration of test agents.

Assay [2] concerns noncancer human lung fibroblast cell line (MRC-5). The experiment in a line: Neutral red cytotoxicity assay, MRC-5. Type of assay: cell-based. To be noted: MRC5, isolated compounds, 72 h, mean ± SD of three replicates, read-out: IC50 (μg/mL) MRC-5. How it is done:
as §1
as §2, with “The percentage of inhibition of each of the test samples was calculated according to the following formula using the OD values obtained: percentage of inhibition (%) = (OD control − OD sample)/OD control × 100%. The average of three replicates was then obtained.” left out, “The IC50 value is the concentration of test agents that cause 50% inhibition or cell death, averaged from the three experiments. The IC50 for each extract was extrapolated from the graphs of the percentage inhibition versus concentration of test agents.” left out

Regarding `C=C1CCC(C(C)C)=CC2C1CC[C@@]2(C)O` (stereo partly shown) [Alismol, alismol], the IC50 in assay [1] is 10 ± 0.7 µg/mL (≈ 45.4 µM); in assay [2], above 100 µg/mL.
For `C=CC1(C)Cc2occ(C)c2C(=O)C1C(=C)C` (stereo not shown) [Curzerenone, curzerenone] the same measures were 40 ± 0.5 µg/mL (≈ 174 µM) and 20 ± 1.2 µg/mL (≈ 86.8 µM).
